Reference: patent publication US12202843B2, “Muscarinic receptor agonists” (Nxera Pharma UK Limited, priority 2014, dated 2025)

Experiments:
Type in all cases: cell-based
[1] = molecular target: T1, human muscarinic M1 receptor (Homo sapiens, UniProt P11229); test: Alphascreen Surefire phospho-ERK1/2 functional assay, M1; conditions: for EC50: CHO cells stably expressing human M1, read-out: pEC50 M1 (converted); for % Emax cf. ACh, M1: CHO cells stably expressing human M1, relative to ACh; for Emax: CHO, read-out: % Emax cf. ACh, M1, CHO cells stably expressing human M1, relative to ACh
T1 sequence (P11229 1-460): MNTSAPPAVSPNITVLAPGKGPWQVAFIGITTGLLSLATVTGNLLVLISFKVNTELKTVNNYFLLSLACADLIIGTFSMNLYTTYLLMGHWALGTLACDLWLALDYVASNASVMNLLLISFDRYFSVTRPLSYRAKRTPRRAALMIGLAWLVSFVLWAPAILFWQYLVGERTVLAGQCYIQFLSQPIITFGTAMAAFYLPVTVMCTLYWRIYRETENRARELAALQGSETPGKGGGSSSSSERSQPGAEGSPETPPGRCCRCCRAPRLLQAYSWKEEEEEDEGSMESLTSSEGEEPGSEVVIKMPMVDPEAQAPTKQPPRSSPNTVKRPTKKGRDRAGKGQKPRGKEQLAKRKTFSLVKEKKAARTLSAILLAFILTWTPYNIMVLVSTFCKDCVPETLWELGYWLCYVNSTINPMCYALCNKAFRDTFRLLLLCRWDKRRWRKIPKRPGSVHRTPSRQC
Experimental: (§1) ERK1/2 phosphorylation is a downstream consequence of both Gq/11 and Gi/o protein coupled receptor activation, making it highly suitable for the assessment of M1, M3 (Gq/11 coupled) and M2, M4 receptors (Gi/o coupled), rather than using different assay formats for different receptor subtypes. CHO cells stably expressing the human muscarinic M1, M2, M3 or M4 receptor were plated (25K/well) onto 96-well tissue culture plates in MEM-alpha+10% dialysed FBS. Once adhered, cells were serum-starved overnight. Agonist stimulation was performed by the addition of 5 μL agonist to the cells for 5 min (37° C.). Media was removed and 50 μL of lysis buffer added. […] Plates were incubated for 2 h with gentle agitation in the dark and then read on a PHERAstar plate reader.
(§2) pEC50 and Emax figures were calculated from the resulting data for each receptor subtype.

[2] = molecular target: T2, human muscarinic M3 receptor (Homo sapiens, UniProt P20309); test: Alphascreen Surefire phospho-ERK1/2 functional assay, M3; conditions: for % Emax cf. ACh, M3: CHO cells stably expressing human M3, relative to ACh; for EC50: CHO cells stably expressing human M3, read-out: pEC50 M3 (converted); for Emax: CHO, read-out: % Emax cf. ACh, M3, CHO cells stably expressing human M3, relative to ACh
T2 construct: expressed in transfected cells
T2 sequence (P20309 whole entry): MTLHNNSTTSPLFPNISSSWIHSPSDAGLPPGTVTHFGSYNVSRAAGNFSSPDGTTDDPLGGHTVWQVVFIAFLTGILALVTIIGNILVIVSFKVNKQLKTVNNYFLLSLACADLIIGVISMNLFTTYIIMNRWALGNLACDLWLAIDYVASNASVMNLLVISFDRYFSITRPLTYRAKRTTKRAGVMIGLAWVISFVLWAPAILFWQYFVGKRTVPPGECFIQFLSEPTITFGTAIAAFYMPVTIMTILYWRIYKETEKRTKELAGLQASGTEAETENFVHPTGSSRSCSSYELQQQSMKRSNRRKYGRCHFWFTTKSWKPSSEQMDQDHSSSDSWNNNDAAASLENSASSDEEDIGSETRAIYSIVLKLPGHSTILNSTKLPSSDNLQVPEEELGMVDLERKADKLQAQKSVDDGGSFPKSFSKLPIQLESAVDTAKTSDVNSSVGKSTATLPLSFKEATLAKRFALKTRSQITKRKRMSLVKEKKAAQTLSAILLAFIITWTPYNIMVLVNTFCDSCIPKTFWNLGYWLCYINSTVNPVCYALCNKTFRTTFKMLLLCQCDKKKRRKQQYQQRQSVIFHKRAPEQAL
Experimental: as §1, §2

[3] = molecular target: T3, human muscarinic M2 receptor (Homo sapiens, UniProt P08172); test: Alphascreen Surefire phospho-ERK1/2 functional assay, M2; conditions: for EC50: CHO cells stably expressing human M2, read-out: pEC50 M2 (converted); for % Emax cf. ACh, M2: CHO cells stably expressing human M2, relative to ACh; for Emax: CHO, read-out: % Emax cf. ACh, M2, CHO cells stably expressing human M2, relative to ACh
T3 sequence (P08172 1-466): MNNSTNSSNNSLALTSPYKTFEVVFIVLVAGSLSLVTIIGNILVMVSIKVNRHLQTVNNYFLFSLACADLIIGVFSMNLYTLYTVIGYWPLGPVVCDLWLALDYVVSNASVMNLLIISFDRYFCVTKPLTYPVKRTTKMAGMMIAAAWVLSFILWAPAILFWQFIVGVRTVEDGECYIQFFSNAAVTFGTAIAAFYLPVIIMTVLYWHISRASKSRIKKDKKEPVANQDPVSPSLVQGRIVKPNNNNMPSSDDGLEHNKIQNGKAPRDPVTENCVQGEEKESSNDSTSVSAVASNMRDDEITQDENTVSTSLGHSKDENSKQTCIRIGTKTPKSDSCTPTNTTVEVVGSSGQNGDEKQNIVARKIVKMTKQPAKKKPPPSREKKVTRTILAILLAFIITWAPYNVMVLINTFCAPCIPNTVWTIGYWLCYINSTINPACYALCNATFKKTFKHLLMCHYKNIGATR
Experimental: as §1, §2

[4] = molecular target: T4, human muscarinic M4 receptor (Homo sapiens, UniProt P08173); test: Alphascreen Surefire phospho-ERK1/2 functional assay, M4; conditions: for EC50: CHO cells stably expressing human M4, read-out: pEC50 M4 (converted); for % Emax cf. ACh, M4: CHO cells stably expressing human M4, relative to ACh; for Emax: CHO, read-out: % Emax cf. ACh, M4, CHO cells stably expressing human M4, relative to ACh
T4 construct: expressed in transfected cells
T4 sequence (P08173 1-479): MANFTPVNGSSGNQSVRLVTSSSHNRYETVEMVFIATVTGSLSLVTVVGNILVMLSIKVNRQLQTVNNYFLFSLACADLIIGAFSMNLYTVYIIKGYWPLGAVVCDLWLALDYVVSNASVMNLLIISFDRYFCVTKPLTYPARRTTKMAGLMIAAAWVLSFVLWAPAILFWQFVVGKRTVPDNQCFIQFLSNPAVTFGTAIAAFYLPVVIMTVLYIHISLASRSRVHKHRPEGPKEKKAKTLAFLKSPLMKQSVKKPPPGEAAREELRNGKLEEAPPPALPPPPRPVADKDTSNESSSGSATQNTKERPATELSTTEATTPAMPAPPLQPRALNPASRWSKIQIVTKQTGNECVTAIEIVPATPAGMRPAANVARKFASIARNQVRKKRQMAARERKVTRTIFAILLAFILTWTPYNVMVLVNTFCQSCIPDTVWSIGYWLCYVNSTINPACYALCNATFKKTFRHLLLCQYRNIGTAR
Experimental: as §1, §2

| SMILES | EC50 [1] [nM] | EC50 [3] [µM] | EC50 [4] [nM] | EC50 [2] [µM] | Emax [2] [%] | Emax [3] [%] | Emax [1] [%] | Emax [4] [%] | also measured |
| --- | --- | --- | --- | --- | --- | --- | --- | --- | --- |
| CCOC(=O)N1C2CCCC1CC(N1CCC3(CC1)CNC(=O)C3)C2 (single isomer, unassigned) [Example 5-1 Isomer 2, ethyl 3-(3-oxo-2,8-diazaspiro[4.5]dec-8-yl)-9-azabicyclo[3.3.1]nonane-9-carboxylate] | 158 | > 20 | > 20000 | – | – | – | – | – | % Emax cf. ACh, M1 ([1]; listed as 5-1 Isomer 2): 77%; % Emax cf. ACh, M3 [2]: 6%; % Emax cf. ACh, M2 [3]: 14%; % Emax cf. ACh, M4 ([4]; listed as 5-1 Isomer 2): 8% |
| CCOC(=O)N1C2CCC1C(F)C(N1CCC3(CC1)CNC(=O)C3)C2 (single isomer, unassigned) [Example 2-11 Isomer 2] | 251 | > 20 | 200 | > 20 | 22 | 18 | – | – | % Emax cf. ACh, M1 [1]: 101%; % Emax cf. ACh, M4 [4]: 55% |
| CCCN1CC2(CCN(C3CC4CCC(C3)N4C(=O)OCC)CC2)CC1=O (single isomer, unassigned) [Example 2-25 Isomer 2, ethyl 3-(3-oxo-2-propyl-2,8-diazaspiro[4.5]dec-8-yl)-8-azabicyclo[3.2.1]octane-8-carboxylate] | 251 | > 20 | 251 | > 20 | 12 | 15 | 53 | 25 | – |
| CCOC(=O)N1C2CCC1CC(N1CCCC3(CC1)CNC(=O)C3)C2 (single isomer, unassigned) [Example 9-1 Isomer 2, ethyl 3-(3-oxo-2,8-diazaspiro[4.6]undec-8-yl)-8-azabicyclo[3.2.1]octane-8-carboxylate] | 3.98 | > 20 | 2.51 | > 20 | 22 | 12 | 103 | 60 | – |
| CC#CCOC(=O)N1[C@@H]2CCC[C@H]1CC(N1CCC3(CC1)CNC(=O)C3)C2 (mixture of isomers) [Example 5-3] | 31.6 | > 20 | 31.6 | 6.31 | 19 | 7 | 80 | 37 | – |
| C#CCOC(=O)N1C2CCC1CC(N1CCC3(CC1)CNC(=O)C3)C2 (single isomer, unassigned) [Example 2-4 Isomer 2] | 20 | – | 25.1 | – | – | – | – | – | % Emax cf. ACh, M1 [1]: 86%; % Emax cf. ACh, M3 ([2]; listed as 2-4 Isomer 2): 0%; % Emax cf. ACh, M2 ([3]; listed as 2-4 Isomer 2): 8%; % Emax cf. ACh, M4 [4]: 53% |
| CCOC(=O)N1C2CCC1CC(N1CCC3(CC1)CC(=O)NC3Cc1ccccc1)C2 (single isomer, unassigned) [Example 2-10 Isomer 2] | 63.1 | – | 126 | – | – | – | – | – | % Emax cf. ACh, M1 [1]: 77%; % Emax cf. ACh, M3 ([2]; listed as 2-10 Isomer 2): 13%; % Emax cf. ACh, M2 ([3]; listed as 2-10 Isomer 2): 11%; % Emax cf. ACh, M4 ([4]; listed as 2-10 Isomer 2): 50% |
| CCOC(=O)N1C2CCCC1CC(N1CCC3(CC1)CNC(=O)O3)C2 (single isomer, unassigned) [Example 5-4 Isomer 2] | 158 | > 20 | – | > 20 | 0 | 2 | – | – | % Emax cf. ACh, M1 [1]: 72%; % Emax cf. ACh, M4 ([4]; listed as 5-4 Isomer 2): 8% |
| CCOC(=O)N1C2CCC1CC(N1CCC3(CC1)CC(=O)N(CC)C3)C2 (single isomer, unassigned) [Example 2-13 Isomer 2] | 158 | > 20 | 100 | > 20 | 57 | 11 | 76 | 49 | – |
| C#CCOC(=O)N1C2CCC1CC(N1CCC3(CC1)CNC(=O)C3)C2 (single isomer, unassigned) [Example 2-4 Isomer 1] | 100 | > 20 | 126 | > 20 | – | – | 92 | 64 | % Emax cf. ACh, M3 ([2]; listed as 2-4 Isomer 1): 7%; % Emax cf. ACh, M2 ([3]; listed as 2-4 Isomer 1): 27% |
| CCOC(=O)N1C2CCC1CC(N1CCC3(CC1)CC(=O)NC3CC)C2 (single isomer, unassigned) [Example 2-8 Isomer 2, ethyl 3-(1-ethyl-3-oxo-2,8-diazaspiro[4.5]decan-8-yl)-8-azabicyclo [3.2.1]octane-8-carboxylate] | 100 | – | 31.6 | > 20 | – | – | – | – | % Emax cf. ACh, M1 ([1]; listed as 2-8 Isomer 2): 89%; % Emax cf. ACh, M3 ([2]; listed as 2-8 Isomer 2): 12%; % Emax cf. ACh, M2 [3]: 6%; % Emax cf. ACh, M4 ([4]; listed as 2-8 Isomer 2): 59% |
| CC#CCOC(=O)N1C2CCC1CC(N1CCC3(CC1)CNC(=O)C3)C2 (single isomer, unassigned) [Example 2-5 Isomer 1] | 25.1 | 0.158 | 25.1 | > 20 | 7 | 39 | 98 | 87 | – |
| [2H]C([2H])(C)OC(=O)N1C2CCC1CC(N1CCC3(CC1)CNC(=O)C3)C2 (single isomer, unassigned) [Example 2-30 Isomer 2, (1,1-^2H2)ethyl 3-(3-oxo-2,8-diazaspiro[4.5]dec-8-yl)-8-azabicyclo[3.2.1]octane-8-carboxylate] | 31.6 | > 20 | 79.4 | > 20 | 16 | 9 | – | – | % Emax cf. ACh, M1 ([1]; listed as 2-30 Isomer 2): 66%; % Emax cf. ACh, M4 [4]: 29% |
| CCOC(=O)N1C2CCCC1CC(N1CCC3(CC1)CNC(=O)C3)C2 (single isomer, unassigned) [Example 5-1 Isomer 1, ethyl 3-(3-oxo-2,8-diazaspiro[4.5]dec-8-yl)-9-azabicyclo[3.3.1]nonane-9-carboxylate] | 316 | 7.94 | 251 | > 20 | 8 | 17 | – | – | % Emax cf. ACh, M1 ([1]; listed as 5-1 Isomer 1): 131%; % Emax cf. ACh, M4 ([4]; listed as 5-1 Isomer 1): 25% |
